Test results taken from paper PMC8821502, “Engineering a feedback inhibition-insensitive plant dihydrodipicolinate synthase to increase lysine content in Camelina sativa seeds” (Transgenic Research, 2021).

Key:
Experiment in all cases: o-aminobenzaldehyde colorimetric DHDPS assay, […] nm
Format in all cases: biochemical
CgDHDPS = target: T1, CgDHDPS (Corynebacterium glutamicum, UniProt P19808); details: 2 mM L-ASA, 35 mM pyruvate, pH 8, 37 °C; E. coli extract
T1 construct: gene dapA; ORF (301 aa) in pUC18; E. coli cell extract, not purified
T1 sequence (P19808 1-301): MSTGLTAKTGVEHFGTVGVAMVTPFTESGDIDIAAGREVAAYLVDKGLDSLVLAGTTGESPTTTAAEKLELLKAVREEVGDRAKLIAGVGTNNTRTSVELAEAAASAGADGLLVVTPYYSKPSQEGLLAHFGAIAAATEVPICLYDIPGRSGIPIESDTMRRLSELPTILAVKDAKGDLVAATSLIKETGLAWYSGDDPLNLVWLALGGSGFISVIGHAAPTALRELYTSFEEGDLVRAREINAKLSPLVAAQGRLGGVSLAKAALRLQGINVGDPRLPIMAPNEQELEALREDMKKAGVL

CsDHDPS B6 (wt CsDHDPS) [1] = target: T2, CsDHDPS B6 (wt CsDHDPS) (Camelina sativa, UniProt A0ABM0Z9P4); details: 2 mM L-ASA, 35 mM pyruvate, pH 8, 37 °C; E. coli extract
T2 construct: gene LOC104788368; ORF (365 aa, includes predicted 38-aa chloroplast transit peptide) in pUC18 in-frame with LacZ start codon; E. coli cell extract, not purified; modelled as tetramer
T2 sequence (A0ABM0Z9P4 entry or part of it): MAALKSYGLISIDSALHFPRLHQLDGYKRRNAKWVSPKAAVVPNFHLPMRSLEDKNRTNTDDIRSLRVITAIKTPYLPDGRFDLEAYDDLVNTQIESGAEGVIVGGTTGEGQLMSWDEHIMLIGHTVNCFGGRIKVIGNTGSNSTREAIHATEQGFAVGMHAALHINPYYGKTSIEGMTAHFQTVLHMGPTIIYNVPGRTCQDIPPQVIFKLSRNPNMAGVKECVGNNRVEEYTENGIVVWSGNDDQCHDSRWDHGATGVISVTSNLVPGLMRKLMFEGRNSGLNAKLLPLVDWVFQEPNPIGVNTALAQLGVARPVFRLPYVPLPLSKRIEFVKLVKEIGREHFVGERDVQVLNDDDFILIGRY

CsDHDPS B6 (wt CsDHDPS) [2] = target: T2, CsDHDPS B6 (wt CsDHDPS); details: read-out: % activity remaining at 25 μM lysine

N[C@@H](CC=O)C(=O)O [L-aspartic-β-semi-aldehyde]
o-aminobenzaldehyde colorimetric DHDPS assay, 520 nm (CgDHDPS): using L-aspartic-β-semi-aldehyde (L-ASA) as the substrate
o-aminobenzaldehyde colorimetric DHDPS assay, 520 nm (CsDHDPS B6 (wt CsDHDPS) [1]): using L-aspartic-β-semi-aldehyde (L-ASA) as the substrate

NCCCC[C@H](N)C(=O)O [lysine]
remaining activity at 25 µM (CsDHDPS B6 (wt CsDHDPS) [2]): 20%
